Several values for one entry are separate records, joined by “and”; a condition that tells them apart may be missing. Equal entries are not always repeated. Toxic doses and inconclusive results are not listed. Cut-off read from the data, not from the text of the source: active = T/C of 150% or more; inactive = T/C below 125%.
System: L1210 leukemia ip in BDF1 mice, survival T/C
Test: NCI In Vivo Anticancer Drug Screen. Data for tumor model L1210 Leukemia (intraperitoneal) in B6D2F1 (BDF1) mice
Settings: endpoint: mean survival time, higher = longer survival
Outline: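 Transplanted-tumor mice were given test agent; controls received vehicle only. Survival readings from the two groups were divided (treated over control).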

[1] = dose: 50.0 mg/kg/injection, schedule: Q04DX003 (ip), vehicle: saline
[2] = dose: 100.0 mg/kg/injection, schedule: Q04DX003 (ip), vehicle: saline
[3] = dose: 200.0 mg/kg/injection, schedule: Q04DX003 (ip), vehicle: saline
[4] = dose: 100.0 mg/kg/injection, schedule: Q04DX003 (ip), vehicle: Klucel (hydroxypropylcellulose) (HPC)
[5] = dose: 100.0 mg/kg/injection, schedule: Q04DX003 (ip), vehicle: saline with Tween-80
[6] = dose: 200.0 mg/kg/injection, schedule: Q04DX003 (ip), vehicle: Klucel (hydroxypropylcellulose) (HPC)
[7] = dose: 200.0 mg/kg/injection, schedule: Q04DX003 (ip), vehicle: saline with Tween-80
[8] = dose: 400.0 mg/kg/injection, schedule: Q04DX003 (ip), vehicle: Klucel (hydroxypropylcellulose) (HPC)
[9] = dose: 100.0 mg/kg/injection, schedule: Q04DX002 (ip), vehicle: saline with Tween-80
[10] = dose: 200.0 mg/kg/injection, schedule: Q04DX002 (ip), vehicle: saline with Tween-80
[11] = dose: 400.0 mg/kg/injection, schedule: Q04DX002 (ip), vehicle: saline with Tween-80
[12] = dose: 100.0 mg/kg/injection, schedule: Q01DX009 (ip), vehicle: Klucel (hydroxypropylcellulose) (HPC)
[13] = dose: 200.0 mg/kg/injection, schedule: Q01DX009 (ip), vehicle: Klucel (hydroxypropylcellulose) (HPC)
[14] = dose: 400.0 mg/kg/injection, schedule: Q01DX009 (ip), vehicle: Klucel (hydroxypropylcellulose) (HPC)
[15] = dose: 100.0 mg/kg/injection, schedule: Q01DX009 (ip), vehicle: saline with Tween-80

Measured: T/C

CC(C)(CCC(=O)O)[N+](=O)[O-]
inactive: [1] 106 % of control | [2] 105 % of control | [3] 101 % of control

OC(CNc1ccc(Cl)cc1)CN1CCCCC1 (centres undefined)
inactive: [1] 91 % of control | dose: 100.0 mg/kg/injection, schedule: Q01DX001 (ip), vehicle: saline 100 % of control | [2] 98 % of control | dose: 200.0 mg/kg/injection, schedule: Q01DX001 (ip), vehicle: saline 90 % of control

Cc1ccc(S(=O)(=O)NNC(=O)C2(C)CC2(C)C(=O)O)cc1 (centres undefined)
inactive: dose: 100.0 mg/kg/injection, schedule: Q01DX001 (ip), vehicle: Klucel (hydroxypropylcellulose) (HPC) 100 % of control | [4] 91 % of control | [5] 96 % of control | dose: 200.0 mg/kg/injection, schedule: Q01DX001 (ip), vehicle: Klucel (hydroxypropylcellulose) (HPC) 93 % of control | [6] 89 % of control | [7] 93 % of control | dose: 400.0 mg/kg/injection, schedule: Q01DX001 (ip), vehicle: Klucel (hydroxypropylcellulose) (HPC) 101 % of control | [8] 100 % of control | dose: 400.0 mg/kg/injection, schedule: Q04DX003 (ip), vehicle: saline with Tween-80 86 % of control

CC1CC(=O)C2CC(Cl)CCC2(C)C1C (centres undefined)
inactive: [5] 101 % of control | dose: 150.0 mg/kg/injection, schedule: Q01DX009 (ip), vehicle: Klucel (hydroxypropylcellulose) (HPC) 91 % of control | dose: 225.0 mg/kg/injection, schedule: Q01DX009 (ip), vehicle: Klucel (hydroxypropylcellulose) (HPC) 97 % of control

CC1=CC(=O)C=C(C(C)C)/C1=C(\c1ccccc1C(=O)O)c1c(C)cc(OP(=O)(O)O)cc1C(C)C
inactive: dose: 100.0 mg/kg/injection, schedule: Q01DX009 (ip), vehicle: saline 103 % of control | [2] 106 % of control | dose: 200.0 mg/kg/injection, schedule: Q01DX009 (ip), vehicle: saline 102 % of control | [3] 97 % of control | dose: 400.0 mg/kg/injection, schedule: Q01DX009 (ip), vehicle: saline 100 % of control | dose: 400.0 mg/kg/injection, schedule: Q04DX003 (ip), vehicle: saline 98 % of control

Sc1ccc(Cl)cc1.[Pb]
inactive: dose: 25.0 mg/kg/injection, schedule: Q01DX009 (ip), vehicle: gum acacia 94 % of control | dose: 25.0 mg/kg/injection, schedule: Q04DX002 (ip), vehicle: gum acacia 99 % of control | dose: 50.0 mg/kg/injection, schedule: Q01DX009 (ip), vehicle: gum acacia 94 % of control | dose: 50.0 mg/kg/injection, schedule: Q04DX002 (ip), vehicle: gum acacia 99 % of control | dose: 100.0 mg/kg/injection, schedule: Q04DX002 (ip), vehicle: gum acacia 96 % of control and 91 % of control | dose: 200.0 mg/kg/injection, schedule: Q04DX002 (ip), vehicle: gum acacia 102 % of control | dose: 400.0 mg/kg/injection, schedule: Q04DX002 (ip), vehicle: gum acacia 109 % of control

C[Si](C)(C)Cc1ccc(Cl)cc1
inactive: dose: 111.0 mg/kg/injection, schedule: Q01DX Z (ip), vehicle: saline 104 % of control | dose: 166.0 mg/kg/injection, schedule: Q01DX Z (ip), vehicle: saline 91 % of control | dose: 250.0 mg/kg/injection, schedule: Q01DX Z (ip), vehicle: saline 98 % of control

CC(=O)/C=C/c1c[nH]c(=O)[nH]c1=O
inactive: [9] 104 % of control | [10] 104 % of control | [11] 93 % of control

COC1OC2CSC(=S)OC2C(OC)C1OC (centres undefined)
inactive: dose: 25.0 mg/kg/injection, schedule: Q04DX002 (ip), vehicle: saline 100 % of control | dose: 50.0 mg/kg/injection, schedule: Q04DX002 (ip), vehicle: saline 92 % of control | dose: 100.0 mg/kg/injection, schedule: Q04DX002 (ip), vehicle: saline 103 % of control | dose: 200.0 mg/kg/injection, schedule: Q04DX002 (ip), vehicle: saline 102 % of control | dose: 400.0 mg/kg/injection, schedule: Q04DX002 (ip), vehicle: saline 102 % of control

COC1(c2ccccc2)OC(C(C)(C)C)=NC1(C)C (centres undefined)
inactive: [5] 92 % of control | [7] 108 % of control

Cc1c(C#N)oc2cccc(O)c12
inactive: [12] 100 % of control | dose: 100.0 mg/kg/injection, schedule: Q04DX002 (ip), vehicle: Klucel (hydroxypropylcellulose) (HPC) 109 % of control | [13] 100 % of control | dose: 200.0 mg/kg/injection, schedule: Q04DX002 (ip), vehicle: Klucel (hydroxypropylcellulose) (HPC) 109 % of control | [14] 96 % of control | dose: 400.0 mg/kg/injection, schedule: Q04DX002 (ip), vehicle: Klucel (hydroxypropylcellulose) (HPC) 102 % of control

CCOC(=O)NC(CI)(c1ccccc1)c1ccccc1
inactive: dose: 75.0 mg/kg/injection, schedule: Q01DX001 (ip), vehicle: saline 98 % of control | dose: 150.0 mg/kg/injection, schedule: Q01DX001 (ip), vehicle: saline 97 % of control | dose: 300.0 mg/kg/injection, schedule: Q01DX001 (ip), vehicle: saline 92 % of control

c1ccc2c(c1)ccc1cc3cccc[n+]3cc12
inactive: dose: 0.31 mg/kg/injection, schedule: Q01DX009 (ip), vehicle: saline 98 % of control | dose: 0.62 mg/kg/injection, schedule: Q01DX009 (ip), vehicle: saline 98 % of control | dose: 1.25 mg/kg/injection, schedule: Q01DX009 (ip), vehicle: saline 101 % of control and 104 % of control | dose: 5.0 mg/kg/injection, schedule: Q04DX003 (ip), vehicle: saline 102 % of control | dose: 10.0 mg/kg/injection, schedule: Q04DX003 (ip), vehicle: saline 96 % of control

O=C1c2ccccc2-c2c1nc1ccccc1[n+]2[O-]
inactive: dose: 75.0 mg/kg/injection, schedule: Q01DX001 (ip), vehicle: saline sonified 89 % of control | dose: 150.0 mg/kg/injection, schedule: Q01DX001 (ip), vehicle: saline sonified 92 % of control | dose: 300.0 mg/kg/injection, schedule: Q01DX001 (ip), vehicle: saline sonified 92 % of control

Cc1ccc(NS(=O)(=O)c2ccccc2)c(C)c1
inactive: [12] 99 % of control | [4] 104 % of control | [13] 99 % of control | [6] 95 % of control | [14] 94 % of control | [8] 98 % of control

O=[N+]([O-])c1ccc(N=NNc2ccc(N=Nc3ccccc3)cc2)cc1
inactive: dose: 25.0 mg/kg/injection, schedule: Q01DX009 (ip), vehicle: Klucel (hydroxypropylcellulose) (HPC) 91 % of control | dose: 25.0 mg/kg/injection, schedule: Q04DX003 (ip), vehicle: other 89 % of control | dose: 50.0 mg/kg/injection, schedule: Q01DX009 (ip), vehicle: Klucel (hydroxypropylcellulose) (HPC) 102 % of control | dose: 50.0 mg/kg/injection, schedule: Q04DX003 (ip), vehicle: other 95 % of control | dose: 100.0 mg/kg/injection, schedule: Q04DX003 (ip), vehicle: other 92 % of control

O=[N+]([O-])c1ccc(C(Br)Br)cc1
inactive: [4] 93 % of control | [6] 93 % of control

Cc1cc(C)c(CN)cc1CN
inactive: dose: 25.0 mg/kg/injection, schedule: Q01DX009 (ip), vehicle: saline with Tween-80 95 % of control | dose: 50.0 mg/kg/injection, schedule: Q01DX009 (ip), vehicle: saline with Tween-80 98 % of control | [15] 100 % of control | [5] 97 % of control

COc1ccc(Cl)cc1NC(=O)Oc1ccccc1C(C)C
inactive: dose: 100.0 mg/kg/injection, schedule: Q01DX001 (ip), vehicle: saline with Tween-80 96 % of control | [15] 96 % of control | [9] 95 % of control and 106 % of control | dose: 200.0 mg/kg/injection, schedule: Q01DX001 (ip), vehicle: saline with Tween-80 102 % of control | dose: 200.0 mg/kg/injection, schedule: Q01DX009 (ip), vehicle: saline with Tween-80 98 % of control | [10] 92 % of control and 109 % of control | dose: 400.0 mg/kg/injection, schedule: Q01DX001 (ip), vehicle: saline with Tween-80 87 % of control | dose: 400.0 mg/kg/injection, schedule: Q01DX009 (ip), vehicle: saline with Tween-80 89 % of control | [11] 95 % of control and 91 % of control

COc1ccc(OC)c2c1CC1CC(=O)OC21C (centres undefined)
inactive: [12] 97 % of control | [4] 97 % of control | [13] 92 % of control | [6] 97 % of control | [14] 97 % of control | [8] 97 % of control

From PubChem BioAssay AID248 (DTP/NCI, 2004)
